Data reported in US20250025443A1, “COMPOUNDS AND METHODS FOR TREATING CORONA VIRUSES” (CLEAR CREEK BIO, INC., priority 2021, published 2025).
Like-named read-outs stand apart in the source and are kept apart here.

Molecular target: SARS-CoV-2 Papain-Like Protease (PLpro) (Severe acute respiratory syndrome coronavirus 2 (2019-nCoV) (SARS-CoV-2), UniProt P0DTD1)
Experiment: biochemical
Settings: read-out: PLpro IC50
[1] = PLpro enzymatic fluorescence assay, class symbols
[2] = SARS-CoV-2 PLpro enzymatic fluorescence assay

| Compound | IC50 [1] | IC50 [2] |
| --- | --- | --- |
| Cc1ccc(N2CC(N)C2)cc1C(=O)NC1(c2cccc3ccccc23)CC1 [Compound 464, 5-(3-Aminoazetidin-1-yl)-2-methyl-N-(1-(naphthalen-1-yl)cyclopropyl)benzamide] | < 100 nM | – |
| Cc1ccc(OCC2CCN2C)cc1C(=O)NC1(c2cccc3ccc(C(=O)O)cc23)CC1 (stereo not drawn) [Compound 465, 8-(1-(2-Methyl-5-((1-methylazetidin-2-yl)methoxy)benzamido)cyclopropyl)-2-naphthoic acid] | – | 1000 to 5000 nM |
| COc1cc(C2(NC(=O)c3cc(OCC4CCN4C)ccc3C)CC2)c2ccc(F)cc2n1 (stereo not drawn) [Compound 467, N-(1-(7-Fluoro-2-methoxyquinolin-4-yl)cyclopropyl)-2-methyl-5-((1-methylazetidin-2-yl)methoxy)benzamide] | – | < 100 nM |
| Cc1ccc(OCC2CCN2C)cc1C(=O)NC1(c2cc(-c3cccs3)cc3ccccc23)CC1 (stereo not drawn) [Compound 468, 2-Methyl-5-((1-methylazetidin-2-yl)methoxy)-N-(1-(3-(thiophen-2-yl)naphthalen-1-yl)cyclopropyl)benzamide] | – | < 100 nM |
| Cc1ccc(OCC(C)N)cc1C(=O)NC1(c2cc(-c3ccccc3)cc3ccccc23)CC1 (stereo not drawn) [Compound 470, 5-(2-Aminopropoxy)-2-methyl-N-(1-(3-phenylnaphthalen-1-yl)cyclopropyl)benzamide] | – | < 100 nM |
| CCS(=O)(=O)c1cc(C2(NC(=O)c3cc(OCCN(C)C)ccc3C)CC2)c2ccccc2c1 [Compound 471, 5-(2-(Dimethylamino)ethoxy)-N-(1-(3-(ethylsulfonyl)naphthalen-1-yl)cyclopropyl)-2-methylbenzamide] | – | 100 to 1000 nM |
| Cc1ccc(CCCN)cc1C(=O)NC1(c2cccc3ccccc23)CC1 [Compound 472, 5-(3-Aminopropyl)-2-methyl-N-(1-(naphthalen-1-yl)cyclopropyl)benzamide] | – | < 100 nM |
| Cc1ccc(OCC2CCN2C)cc1C(=O)NC1(c2ccnc3ccccc23)CC1 (stereo not drawn) [Compound 473, 2-Methyl-5-((1-methylazetidin-2-yl)methoxy)-N-(1-(quinolin-4-yl)cyclopropyl)benzamide] | < 100 nM | – |
| CCCOc1cc(C2(NC(=O)c3cc(OCC4CCN4C)ccc3C)CC2)c2ccccc2c1 (stereo not drawn) [Compound 474, 2-Methyl-5-((1-methylazetidin-2-yl)methoxy)-N-(1-(3-propoxynaphthalen-1-yl)cyclopropyl)benzamide] | – | < 100 nM |
| Cc1ccc(OCC2CCN2C)cc1C(=O)NC1(c2cc(-c3ccccc3)cc3ccccc23)CC1 (stereo not drawn) [Compound 475, 2-Methyl-5-((1-methylazetidin-2-yl)methoxy)-N-(1-(3-phenylnaphthalen-1-yl)cyclopropyl)benzamide] | – | < 100 nM |
| Cc1ccc(OCC2CCN2C)cc1C(=O)NC1(c2cc(OC(C)C)cc3ccccc23)CC1 (stereo not drawn) [Compound 476, N-(1-(3-Isopropoxynaphthalen-1-yl)cyclopropyl)-2-methyl-5-((1-methylazetidin-2-yl)methoxy)benzamide] | < 100 nM | – |
| Cc1ccc(OCC2CCN2C)cc1C(=O)NC1(c2cccc3ccc(O)cc23)CC1 (stereo not drawn) [Compound 477, N-(1-(7-Hydroxynaphthalen-1-yl)cyclopropyl)-2-methyl-5-((1-methylazetidin-2-yl)methoxy)benzamide] | – | < 100 nM |
| CCOc1cc(C2(NC(=O)c3cc(OCC4CCN4C)ccc3C)CC2)c2ccccc2c1 (stereo not drawn) [Compound 478, N-(1-(3-Ethoxynaphthalen-1-yl)cyclopropyl)-2-methyl-5-((1-methylazetidin-2-yl)methoxy)benzamide] | < 100 nM | – |
| Cc1ccc(-c2cc(C3(NC(=O)c4cc(OCC(C)N)ccc4C)CC3)c3ccccc3c2)s1 (stereo not drawn) [Compound 479, 5-(2-Aminopropoxy)-2-methyl-N-(1-(3-(5-methylthiophen-2-yl)naphthalen-1-yl)cyclopropyl)benzamide] | < 100 nM | – |
| Cc1ccc(OCC(C)N)cc1C(=O)NC1(c2cc(-c3ccc(F)cc3)cc3ccccc23)CC1 (stereo not drawn) [Compound 480, 5-(2-Aminopropoxy)-N-(1-(3-(4-fluorophenyl)naphthalen-1-yl)cyclopropyl)-2-methylbenzamide] | < 100 nM | – |
| Cc1cc(C2(NC(=O)c3cc(OCC(C)N)ccc3C)CC2)c2ccccc2c1 (stereo not drawn) [Compound 481, 5-(2-Aminopropoxy)-2-methyl-N-(1-(3-methylnaphthalen-1-yl)cyclopropyl)benzamide] | – | < 100 nM |
| Cc1ccc(OCC2CCN2C)cc1C(=O)NC1(c2cc(NC(=O)OC(C)(C)C)cc3ccccc23)CC1 (stereo not drawn) [Compound 482, tert-Butyl(4-(1-(2-methyl-5-((1-methylazetidin-2-yl)methoxy)benzamido)cyclopropyl)naphthalen-2-yl)carbamate] | – | < 100 nM |
| Cc1ccc(OCC2CCN2C)cc1C(=O)NC1(c2cccc3ccc(N)cc23)CC1 (stereo not drawn) [Compound 483, N-(1-(7-Aminonaphthalen-1-yl)cyclopropyl)-2-methyl-5-((1-methylazetidin-2-yl)methoxy)benzamide] | – | < 100 nM |
| Cc1ccc(OCC2CCN2C)cc1C(=O)NC1(c2cc(C#N)cc3ccccc23)CC1 (stereo not drawn) [Compound 484, N-(1-(3-Cyanonaphthalen-1-yl)cyclopropyl)-2-methyl-5-((1-methylazetidin-2-yl)methoxy)benzamide] | – | < 100 nM |
| Cc1ccc(N2CCC(N)C2)cc1C(=O)NC1(c2cccc3ccccc23)CC1 (stereo not drawn) [Compound 485, 5-(3-Aminopyrrolidin-1-yl)-2-methyl-N-(1-(naphthalen-1-yl)cyclopropyl)benzamide] | < 100 nM | – |
| CNCCOc1ccc(C)c(C(=O)NC2(c3cc(-c4cccs4)cc4ccccc34)CC2)c1 [Compound 486, 2-Methyl-5-(2-(methylamino)ethoxy)-N-(1-(3-(thiophen-2-yl)naphthalen-1-yl)cyclopropyl)benzamide] | – | < 100 nM |
| Cc1cc(N)c(OCC2CCN2C)cc1C(=O)NC1(c2cccc3ccccc23)CC1 (stereo not drawn) [Compound 487, 4-Amino-2-methyl-5-((1-methylazetidin-2-yl)methoxy)-N-(1-(naphthalen-1-yl)cyclopropyl)benzamide] | – | < 100 nM |
| Cc1ccc(OCC2CCN2C)cc1C(=O)NC1(c2cc(O)cc3ncccc23)CC1 (stereo not drawn) [Compound 488, N-(1-(7-Hydroxyquinolin-5-yl)cyclopropyl)-2-methyl-5-((1-methylazetidin-2-yl)methoxy)benzamide] | < 100 nM | – |
| COc1cc(C2(NC(=O)c3cc(OC[C@@H]4C[C@@H](F)CN4C)ccc3C)CC2)c2ccccc2c1 [Compound 489, 5-(((2S,4R)-4-Fluoro-1-methylpyrrolidin-2-yl)methoxy)-N-(1-(3-methoxynaphthalen-1-yl)cyclopropyl)-2-methylbenzamide] | – | < 100 nM |
| COc1cc(C2(NC(=O)c3cc(OC[C@@H]4C[C@@H](F)CN4)ccc3C)CC2)c2ccccc2c1 [Compound 490, 5-(((2S,4R)-4-Fluoropyrrolidin-2-yl)methoxy)-N-(1-(3-methoxynaphthalen-1-yl)cyclopropyl)-2-methylbenzamide] | – | < 100 nM |
| Cc1ccc(OC2CN(Cc3ccccc3)C(C)(C)C2)cc1C(=O)NC1(c2cccc3ccccc23)CC1 (stereo not drawn) [Compound 491, 5-((1-benzyl-5,5-dimethylpyrrolidin-3-yl)oxy)-2-methyl-N-(1-(naphthalen-1-yl)cyclopropyl)benzamide] | – | 100 to 1000 nM |
| Cc1ccc(OCC2CC(C)(C)N2Cc2ccccc2)cc1C(=O)NC1(c2cccc3ccccc23)CC1 (stereo not drawn) [Compound 492, 5-((1-Benzyl-4,4-dimethylazetidin-2-yl)methoxy)-2-methyl-N-(1-(naphthalen-1-yl)cyclopropyl)benzamide] | – | 100 to 1000 nM |
